In patent US10568950B1, “Peptides, combination of peptides and scaffolds for use in immunotherapeutic treatment of various cancers” (Immatics Biotechnologies GmbH, priority 2015, dated 2020):

Legend:
[1] = test system: CD8+ T cells of healthy HLA-A*02+ donors; test: In vitro immunogenicity: priming of CD8+ T cells with aAPCs loaded with HLA-A*02/peptide complexes and anti-CD28, multimer staining; assay type: cell-based, human; details: HLA-A*02 peptides of Table 12B
Experimental: CD8+ T cells were primed using artificial APCs coated with anti-CD28 mAb and HLA-A*02 in complex with SEQ ID NO: 2 peptide (FIG. 4A, left panel), SEQ ID NO: 9 peptide (FIG. 4B, left panel) and SEQ ID NO: 331 peptide (FIG. 4C, left panel), respectively. After three cycles of stimulation, the detection of peptide-reactive cells was performed by 2D multimer staining with A*02/SEQ ID NO: 2 (A), A*02/SEQ ID NO: 9 (B) or A*02/SEQ ID NO: 331 (C). Right panels (FIGS. 4A, 4B and 4C) show control staining of cells stimulated with irrelevant A*02/peptide complexes. Viable singlet cells were gated for CD8+ lymphocytes. Boolean gates helped excluding false-positive events detected with multimers specific for different peptides. Frequencies of specific multimer+ cells among CD8+ lymphocytes are indicated.
In order to obtain information regarding the immunogenicity of the TUMAPs of the present invention, the inventors performed investigations using an in vitro T-cell priming assay based on repeated stimulations of CD8+ T cells with artificial antigen presenting cells (aAPCs) loaded with peptide/MHC complexes and anti-CD28 antibody.
In order to perform in vitro stimulations by artificial antigen presenting cells loaded with peptide-MHC complex (pMHC) and anti-CD28 antibody, the inventors first isolated CD8+ T cells from fresh HLA-A*02 leukapheresis products via positive selection using CD8 microbeads (Miltenyi Biotec, Bergisch-Gladbach, Germany) of healthy donors obtained from the University clinics Mannheim, Germany, after informed consent.
PBMCs and isolated CD8+ lymphocytes were incubated in T-cell medium (TCM) until use consisting of RPMI-Glutamax (Invitrogen, Karlsruhe, Germany) supplemented with 10% heat inactivated human AB serum (PAN-Biotech, Aidenbach, Germany), 100 U/ml Penicillin/100 μg/ml Streptomycin (Cambrex, Cologne, Germany), 1 mM sodium pyruvate (CC Pro, Oberdorla, Germany), 20 μg/ml Gentamycin (Cambrex). 2.5 ng/ml IL-7 (PromoCell, Heidelberg, Germany) and 10 U/ml IL-2 (Novartis Pharma, Nurnberg, Germany) were also added to the TCM at this step.
Generation of pMHC/anti-CD28 coated beads, T-cell stimulations and readout was performed in a highly defined in vitro system using four different pMHC molecules per stimulation condition and 8 different pMHC molecules per readout condition.
The purified co-stimulatory mouse IgG2a anti human CD28 Ab 9.3 (Jung et al., 1987) was chemically biotinylated using Sulfo-N-hydroxysuccinimidobiotin as recommended by the manufacturer (Perbio, Bonn, Germany). Beads used were 5.6 μm diameter streptavidin coated polystyrene particles (Bangs Laboratories, Illinois, USA).
pMHC used for positive and negative control stimulations were A*0201/MLA-001 (peptide […] (SEQ ID NO. 418) from modified Melan-A/MART-1) and A*0201/DDX5-001 ([…] from DDX5, SEQ ID NO. 419), respectively.
800.000 beads/200 μl were coated in 96-well plates in the presence of 4×12.5 ng different biotin-pMHC, washed and 600 ng biotin anti-CD28 were added subsequently in a volume of 200 μl. Stimulations were initiated in 96-well plates by co-incubating 1×10^6 CD8+ T cells with 2×10^5 washed coated beads in 200 μl TCM supplemented with 5 ng/ml IL-12 (PromoCell) for 3 days at 37° C. Half of the medium was then exchanged by fresh TCM supplemented with 80 U/ml IL-2 and incubating was continued for 4 days at 37° C. This stimulation cycle was performed for a total of three times. For the pMHC multimer readout using 8 different pMHC molecules per condition, a two-dimensional combinatorial coding approach was used as previously described (Andersen et al., 2012) with minor modifications encompassing coupling to 5 different fluorochromes. Finally, multimeric analyses were performed by staining the cells with Live/dead near IR dye (Invitrogen, Karlsruhe, Germany), CD8-FITC antibody clone SKI (BD, Heidelberg, Germany) and fluorescent pMHC multimers. For analysis, a BD LSRII SORP cytometer equipped with appropriate lasers and filters was used. […]

HLA-A*02 = HLA-A*02 (Homo sapiens, UniProt P04439, D140Y/D185E/D98H/E176V/E277Q/G131W/G231S/I119V/I121R/I166T/I218V/N151K/N90K/P208A/P217A/Q86G/Q94H/R138H/R169H); test: MHC binding assay: UV-ligand exchange, beta2m ELISA (peptide exchange yield); details: binding to HLA-A*02, β2m ELISA

| Peptide exchange (MHC class I binding score, peptide exchange yield) (HLA-A*02) | Substance | Wells positive [%] [1] |
| --- | --- | --- |
| +++ (50%-75% = +++) | 7 (AAAAKVPEV; listed as Homo sapiens) [compound 7] | + (<20% = +) |
| +++ (50%-75% = +++) | 17 (ILHEHHIFL; listed as Homo sapiens) [compound 17] | + (<20% = +) |
| ++ (20%-49% = ++) | 9 (FLGDYVENL; listed as Homo sapiens) [compound 9] | + (<20% = +) |

More lines, now with the values behind:

| Substance | Peptide exchange (MHC class I binding score, peptide exchange yield) (HLA-A*02) | Wells positive [%] [1] |
| --- | --- | --- |
| 43 (LLWAGPVTA; listed as Homo sapiens) [compound 43] | +++ (50%-75% = +++) | ++++ (>= 70 % = ++++) |
| 2 (ALYGKLLKL; listed as Homo sapiens) [compound 2] | +++ (50%-75% = +++) | ++++ (>= 70 % = ++++) |
| 322 (ALVSGGVAQA; listed as Homo sapiens) [compound 322] | +++ (50%-75% = +++) | + (<20% = +) |
| 8 (KLGPFLLNA; listed as Homo sapiens) [compound 8] | +++ (50%-75% = +++) | +++ (50%-69% = +++) |
